Experimental data from PubChem BioAssay (NCI).
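How tested: cells in 96-well plates exposed to compound for 48 hours at five concentrations. The concentration for full growth arrest is given as TGI.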

How the values were obtained:
Assay in all cases: DTP human tumour cell line panel, 48 h
[1] = tested on: M14 melanoma
[2] = tested on: NCI-H23 lung
[3] = tested on: TK-10 renal
[4] = tested on: SF-295 CNS
[5] = tested on: SF-268 CNS
[6] = tested on: KM12 colon
[7] = tested on: SK-MEL-2 melanoma
[8] = tested on: SW-620 colon
[9] = tested on: UACC-257 melanoma
[10] = tested on: SK-OV-3 ovarian
[11] = tested on: SNB-75 CNS
[12] = tested on: SN12C renal
[13] = tested on: MDA-MB-435
[14] = tested on: HT29 colon
[15] = tested on: RPMI-8226 leukemia
[16] = tested on: RXF 393 renal
[17] = tested on: NCI-H460 lung
[18] = tested on: EKVX NSCLC
[19] = tested on: HL-60(TB) leukemia
[20] = tested on: HCC-2998 colon

Measured: TGI

NS(=O)(=O)c1cc2c(cc1Cl)NC(CCC(=O)O)=NS2(=O)=O
> 100 µM: [1] | [2] | [3] | [4] | [5] | [6] | [7] | [8] | [9] | [10] | [11] | [12] | [13] | [14] | [15] | [16] | [17] | [18]

CCCSCC(P(=O)(O)O)P(=O)(O)O
> 100 µM: [2] | [4] | [5] | [6] | [7] | [8] | [19] | [9] | [10] | [11] | [20] | [12] | [14] | [15] | [16] | [17] | [18]

CC1CCC(C(=O)O)(C(Br)C(=O)O)CC1 (stereo not given)
> 100 µM: [1] | [2] | [3] | [4] | [6] | [7] | [8] | [19] | [9] | [11] | [12] | [13] | [14] | [15] | [16] | [17] | [18]

Cc1nc(N)c(N2CCN([N+](=O)[O-])CC2)c(=O)[nH]1
> 100 µM: [1] | [2] | [3] | [4] | [5] | [6] | [7] | [8] | [19] | [9] | [11] | [20] | [12] | [13] | [14] | [15] | [17] | [18]

COc1cc(/C=C/C(=O)CC(=O)/C=C/c2ccc(OC(=O)CCCCC3CCSS3)c(OC)c2)ccc1OC(=O)CCCCC1CCSS1 (stereo not given)
> 100 µM: [1] | [2] | [3] | [4] | [5] | [6] | [7] | [8] | [19] | [9] | [10] | [11] | [12] | [13] | [14] | [15] | [16] | [17] | [18]

COc1ccc2c(C)cc(=O)oc2c1OC
> 100 µM: [1] | [2] | [3] | [4] | [5] | [6] | [7] | [8] | [9] | [10] | [11] | [12] | [13] | [14] | [15] | [18]

CCOC(=O)c1ccc(NCC#CCN2CCOCC2)cc1
> 100 µM: [1] | [2] | [5] | [6] | [7] | [8] | [19] | [10] | [12] | [13] | [14] | [15] | [16] | [18]

COc1cc(NS(C)(=O)=O)ccc1Nc1cc(C)[nH]c2ccc3nccc3c12
> 100 µM: [1] | [2] | [3] | [4] | [5] | [6] | [7] | [8] | [19] | [9] | [12] | [13] | [14] | [15] | [17] | [18]
